Reference: a melting point compilation (Tetko et al.; mined from patent text by program, amines drawn as free bases though some values may be those of a salt)

Row | SMILES | melting point [°C]
1 | C=C(C)Cc1c(O)c(C)c(C)c2c1CC(C)N2C=O (centres undefined) | 133 to 135
2 | CC(=O)c1ccccc1OCc1cccc(S(N)(=O)=O)c1 | 124 to 125
3 | CCSc1c(C=NO)c(=O)n(C)c(=O)n1C | 161 to 163
4 | N#Cc1ccc(-c2ccc(Br)o2)nc1 | 196
5 | CC(=O)NC1CC(C)(C)N(OCc2cccc(C)c2)C(C)(C)C1 | 163 to 164
6 | CCOC(=O)Cc1ccc(C(=O)Cl)n1C | 52 to 54
7 | CC(C)c1ccc(S(=O)(=O)Nc2ccc(N3CCC(NCC(O)COc4ccc(O)c(S(C)=O)c4)CC3)nc2)cc1 (centres undefined) | 128 to 130
8 | CCCCCCCCc1c(CCCCCCCC)c2cc(Br)sc2c2sc(Br)cc12 | 63.8 to 65.2
9 | CCCC(=O)Oc1ccc(-c2nc(-c3ccc(N(C)C)cc3)c(C)[nH]2)cc1OC | 62 to 64
10 | CCOC(=O)Cc1ccc2c(c1)C(c1ccccc1Cl)=NCc1nnc(C)n1-2 | 157 to 158
11 | CSCc1cn(C)c2cc(Br)ccc2c1=O | 168 to 170
12 | CCOP(=O)(CCN1CCNc2c1c(=O)c2=O)OCC | 115 to 116
13 | O=C(c1cccc2cc[nH]c12)N1CCN(c2ncccn2)CC1 | 194 to 197
14 | O=c1[nH]c(=O)n(CCCCN2CC=C(c3ccccc3)CC2)c2cc([N+](=O)[O-])ccc12 | 242 to 244
15 | CCCCOc1c(CNC(=O)OC(C)(C)C)n(CC(C)C)c(=O)c2ccc(-c3nc(C(=O)OCC)cs3)cc12 | 172
16 | NC(=O)c1cc(Oc2ccc(C(F)(F)F)cc2Cl)ccc1[N+](=O)[O-] | 139 to 143
17 | CCCCCCCCCCCCn1nnc(C(C(=O)Nc2c(OC)cc(OC)cc2OC)c2ccccc2)n1 (centres undefined) | 119 to 120
18 | CC(C)(C)OC(=O)NC1CCN(C(=O)OCCC2(C(=O)NCC(F)(F)F)c3ccccc3-c3ccccc32)CC1 | 84 to 86
19 | CC(O)C#Cc1ncn2c1CN(C)C(=O)c1ccccc1-2 (centres undefined) | 161 to 162
20 | NS(=O)(=O)c1cccc(-c2cn(-c3nc(-c4cccc(Cl)c4)cc(C(F)(F)F)n3)cn2)c1 | 204
21 | CC(C)c1cccc(C(C)C)c1NC(=O)NCC1(c2ccc(C(F)(F)F)cc2)CCCC1 | 196 to 197
22 | CCc1oncc1C(=O)Nc1ccc([N+](=O)[O-])cc1 | 139 to 141
23 | CC(Nc1ccccc1N)=C1C(=O)OC(=O)C(C(=O)C=Cc2ccc(O)cc2)=C1O | 223 to 225

Row | SMILES | melting point [°C]
24 | CC(=O)NCC1CC1c1cccc2nc(C)sc12 (centres undefined) | 96 to 98
25 | Cn1c2c(c3cccc(-c4ccccc4)c31)C(=O)NCC2 | 242 to 245
26 | COc1ccccc1N1CCN(C(=O)Nc2cc(C(C)=O)c(C)nc2OC)CC1 | 153 to 154
27 | COc1cc(NCCCCCCN2C(=O)c3ccccc3C2=O)c2nccc(C)c2c1 | 84 to 85
28 | C[C@@H](O)CNC(=O)N1CC(Oc2ccc(C(C)(C)C)cc2)C1 | 104 to 105
29 | CN1C(=O)C(c2cccc(Br)c2)(C2CCN(C(=O)c3ccccc3)CC2)N=C1N (centres undefined) | > 250
30 | NC(CSCC(O)CN1CCOCC1)C(=O)O (centres undefined) | 200
31 | CCC(=O)Nc1nc(N2CCC(c3c[nH]c4ccc(NC(C)=O)cc34)CC2)cs1 | 263 to 267
32 | CC[C@@H](C)NC1=NS(=O)(=O)c2sc(Cl)cc2N1 | 215 to 220
33 | O=C1OC(CCCN2CCN(c3ncccn3)CC2)CN1c1ccccc1 (centres undefined) | 92 to 98
34 | COCOc1c(-c2ccccc2)sc2ncccc12 | 54
35 | CCc1nc2c([nH]1)C(=O)N(C)CN2c1ccc(Cl)cc1Cl | 200 to 201
36 | CCC(=O)COc1cc(N)c(Cl)cc1C(=O)NCCN(CC)CC | 103 to 104
37 | CC(C)OC(=O)C(O)C(CC1CCCCC1)NC(=O)C(Cc1c[nH]cn1)NC(=O)C(CC(=O)N1CCOCC1)Cc1cccc2ccccc12 (mixture of isomers) | 103 to 106
38 | CCCCCCC(=N)NC(=S)Nc1ccc(Cl)c([N+](=O)[O-])c1 | 92 to 94
39 | CCOC(=O)c1c(N2CCN(C(=O)c3cccs3)CC2)c2cc(F)cnc2n(Cc2cccc(F)c2)c1=O | 113
40 | CCN1C(=O)C(C)(C)C(=O)N(C)c2cc(CN(CCn3ccc4oc(C)cc4c3=O)Cc3cccc(C=O)c3)ccc21 | 79 to 84
41 | Cc1ccc2c(NCc3ccc(NC(=O)c4ccc(F)cc4)cc3)nc(NC3CCN(Cc4ccccc4)CC3)nc2c1 | 135 to 138
42 | O=C(NC/C=C\COc1cc(CN2CCCCC2)ccn1)NC1CC1 | 102 to 104
43 | CC(C)CC(C)(C#N)N=NC(C)(C#N)CC(C)C (centres undefined) | 52 to 56
44 | CCOC(=O)C1=C(C)NC(=S)N(C(=O)c2ccccc2)C1c1cccc([N+](=O)[O-])c1 (centres undefined) | 173 to 175
45 | Cc1nc(Br)cnc1NS(=O)(=O)c1cccc2c(N(C)C)cccc12 | 171 to 172
46 | COc1ccc(C=C(C(C)=O)C(C)=O)cc1 | 70 to 72

Row | SMILES | melting point [°C]
47 | Cc1ccc(-c2cc3c(n2-c2ccc(O)c(C(=O)O)c2)CCCC3)cc1 | 212 to 214
48 | CN1C(=O)CN(CCc2ccccc2)C1=O | 113 to 114
49 | CCC(Oc1ccc(C(C)(C)CC)cc1C(C)(C)CC)C(=O)O (centres undefined) | 89
50 | N#Cc1c(N2CCc3ccccc3CC2)nc2[nH]ccn2c1=O | > 200
51 | COc1ccc(/C=C/C(=O)C2C(=O)CC(c3ccc(OC)cc3)C([N+](=O)[O-])C2C2CCCCC2)cc1 (centres undefined) | 203 to 205
52 | COCOc1ccc(-c2ncc3ncc(Cl)cc3n2)cc1 | > 268
53 | CC(C)(C)OC(=O)NC(Cc1c[nH]c2ccccc12)C(=O)CCc1cc(C(F)(F)F)cc(C(F)(F)F)c1 (centres undefined) | 138 to 140
54 | CC(C)[C@@H](C(=O)N[C@@H](Cc1ccccc1)[C@@H](O)[C@H](O)[C@H](Cc1ccccc1)NC(=O)[C@H](C(C)C)N(C)C)N(C)C | 200 to 204
55 | CCC(=O)Nc1c([N+](=O)[O-])cnn1-c1ncc(Cl)cc1Cl | 53 to 56
56 | O=C(NCCO)c1cccc(-c2ccc3c(n2)N(c2ccc(Cl)cc2Cl)CC3)c1 | 168 to 169
57 | Clc1ccc(-c2ccccc2OCC2CO2)nn1 (centres undefined) | 118 to 119
58 | O=C(O)C1CSC(c2ccccc2O)N1 (centres undefined) | 169
59 | CCOC(=O)C(O)c1cc(Cl)cc2cccnc12 (centres undefined) | 121 to 124
60 | COC(=O)COc1ccc(C(=O)CCCl)cc1 | 89 to 90
61 | COc1cc(COc2nc(-c3ccccc3)ncc2C(=O)O)ccc1OCc1nc(-c2ccco2)oc1C | 163 to 164
62 | O=C(O)c1[nH]c2ccc(C(O)(C(F)(F)F)C(F)(F)F)cc2c1-c1ccccc1 | 186 to 190
63 | Cn1ncc2c(=S)n3c(nc21)SCC3 | 199 to 200
64 | CCCOc1ccc(-c2ccc(=O)[nH]n2)cc1OC | 186
65 | CC(=O)c1ccc(Nc2c(C(=O)NOCCO)ccc(F)c2F)c(Cl)c1 | 162
66 | CCC(C)(O)C1(c2cccc(OC)c2)CCN(C)CC1 (centres undefined) | 134 to 135
67 | CCS(=O)(=O)Nc1ccc(C(=O)CN2CCN(c3ccncc3)CC2)cc1 | 204 to 208
68 | CC(C)(C)O[C@H]1C[C@H]2CN(C3=Nc4cc(Cl)ccc4Sc4ccccc43)CCN2C1 | 132 to 134
69 | O=C(Nc1ccccc1S(=O)(=O)NCCCn1ccnc1)c1cccc(C(F)(F)F)c1 | 145 to 147
